Experimental data: article PMC5337940, “Sansanmycin natural product analogues as potent and selective anti-mycobacterials that inhibit lipid I biosynthesis” (Nature Communications, 2017)
Values after ≈ are worked out from the molar mass of the structure shown. Like-named read-outs stand apart in the source and are kept apart here.

Assays:
Mtb H37Rv = assay: Resazurin reduction microplate assay, growth inhibition of Mtb H37Rv; assay type: cell-based, Mycobacterium tuberculosis; settings: for MIC50: read-out: MIC50 Mtb H37Rv
Mtb MurX = Mtb MurX (Mycobacterium tuberculosis, UniProt P9WMW7); assay: Radiochemical (TLC) MurX-MurG coupled inhibition assay in Mtb mc2 6230 membranes; assay type: biochemical; settings: 200 nM inhibitor, decrease in lipid II formation
Chain of Mtb MurX (P9WMW7 whole entry): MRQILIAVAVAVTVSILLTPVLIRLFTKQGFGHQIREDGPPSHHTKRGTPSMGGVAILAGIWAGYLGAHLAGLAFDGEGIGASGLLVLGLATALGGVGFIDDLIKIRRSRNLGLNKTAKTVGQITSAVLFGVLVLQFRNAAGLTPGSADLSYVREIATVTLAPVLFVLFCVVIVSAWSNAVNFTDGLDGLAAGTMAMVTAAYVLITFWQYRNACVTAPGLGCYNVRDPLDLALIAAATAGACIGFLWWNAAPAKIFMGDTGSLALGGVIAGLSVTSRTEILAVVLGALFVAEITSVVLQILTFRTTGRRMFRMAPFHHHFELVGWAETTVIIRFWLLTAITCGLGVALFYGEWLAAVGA

HEK293 cells = assay: Cytotoxicity counter-screen, resazurin reduction microplate assay; assay type: cell-based; settings: Homo sapiens, tested up to 200 μM, read-out: MIC50 (HEK293)
[1] = Mycobacterium tuberculosis, H37RV, average of two independent experiments, each in triplicate
[2] = average of two independent experiments, each in triplicate
[3] = Mycobacterium tuberculosis, H37RV

C[C@@H]([C@H](NC(=O)[C@H](CC[S+](C)[O-])NC(=O)N[C@@H](Cc1c[nH]c2ccccc12)C(=O)O)C(=O)NC[C@H]1C[C@@H](O)[C@H](n2ccc(=O)[nH]c2=O)O1)N(C)C(=O)[C@@H](N)Cc1cccc(O)c1 (stereo partly shown) [Compound 6, Dihydrosansanmycin C]
MIC50 (Mtb H37Rv; [1]): 18.5 ± 0.7 µM (≈ 16.3 µg/mL)
inhibition at 0.2 µM (Mtb MurX): 68%
CC50 (HEK293 cells): > 200 µM

C[C@H](O)[C@H](NC(=O)N[C@@H](Cc1c[nH]c2ccccc12)C(=O)O)C(=O)N[C@H](C(=O)NC[C@H]1C[C@@H](O)[C@H](n2ccc(=O)[nH]c2=O)O1)[C@H](C)N(C)C(=O)CN [Compound 26]
MIC50 (Mtb H37Rv; [1]): 2.8 µM (≈ 2.04 µg/mL)
MIC50 Mtb H37Rv (Mtb H37Rv; [2]): 2.80 ± 0.70 µM (≈ 2.04 µg/mL)
inhibition at 0.2 µM (Mtb MurX): 40%
CC50 (HEK293 cells): > 200 µM

CO[C@H]1/C=C/O[C@@]2(C)Oc3c(C)c(O)c4c(O)c(c(/C=N/N5CCN(C)CC5)c(O)c4c3C2=O)NC(=O)/C(C)=C\C=C\[C@H](C)[C@H](O)[C@@H](C)[C@@H](O)[C@@H](C)[C@H](OC(C)=O)[C@@H]1C [RIF, Rifampicin, reference compound]
MIC50 (Mtb H37Rv; [1]): 0.006 ± 0.002 µM (≈ 0.00494 µg/mL)

C[C@@H]([C@H](NC(=O)[C@H](Cc1ccc(O)cc1)NC(=O)N[C@@H](Cc1c[nH]c2ccccc12)C(=O)O)C(=O)NC[C@H]1C[C@@H](O)[C@H](n2ccc(=O)[nH]c2=O)O1)N(C)C(=O)CN [Compound 31]
MIC50 (Mtb H37Rv; [1]): 0.44 to 0.98 µM (≈ 0.348 to 0.776 µg/mL)
MIC50 Mtb H37Rv (Mtb H37Rv; [2]): 0.52 ± 0.02 µM (≈ 0.412 µg/mL)
inhibition at 0.2 µM (Mtb MurX): 40%
CC50 (HEK293 cells): > 200 µM

C[C@@H]([C@H](NC(=O)[C@H](Cc1ccc(C(F)(F)F)cc1)NC(=O)N[C@@H](Cc1c[nH]c2ccccc12)C(=O)O)C(=O)NC[C@H]1C[C@@H](O)[C@H](n2ccc(=O)[nH]c2=O)O1)N(C)C(=O)CN [Compound 30]
MIC50 (Mtb H37Rv; [1]): 0.2 ± 0.06 µM (≈ 0.169 µg/mL)
inhibition at 0.2 µM (Mtb MurX): 100%
CC50 (HEK293 cells): > 200 µM

CC(C)C[C@H](NC(=O)N[C@@H](Cc1c[nH]c2ccccc12)C(=O)O)C(=O)N[C@H](C(=O)NC[C@H]1C[C@@H](O)[C@H](n2ccc(=O)[nH]c2=O)O1)[C@H](C)N(C)C(=O)[C@@H](N)Cc1cccnc1 [Compound 8]
MIC50 (Mtb H37Rv; [1]): 5.85 ± 2.33 µM (≈ 4.87 µg/mL)
inhibition at 0.2 µM (Mtb MurX): 5%
CC50 (HEK293 cells): > 200 µM

CSCC[C@H](NC(=O)N[C@@H](Cc1c[nH]c2ccccc12)C(=O)O)C(=O)N[C@H](C(=O)NC[C@H]1C[C@@H](O)[C@H](n2ccc(=O)[nH]c2=O)O1)[C@H](C)N(C)C(=O)[C@@H](N)c1cccc(O)c1 [Compound 4, Dihydrosansanmycin A]
MIC50 (Mtb H37Rv; [1]): 0.5 ± 0.05 µM (≈ 0.426 µg/mL)
inhibition at 0.2 µM (Mtb MurX): 68%
CC50 (HEK293 cells): > 200 µM

CC(C)C[C@H](NC(=O)N[C@@H](Cc1c[nH]c2ccccc12)C(=O)O)C(=O)N[C@H](C(=O)NC[C@H]1C[C@@H](O)[C@H](n2ccc(=O)[nH]c2=O)O1)[C@H](C)N(C)C(=O)[C@@H](N)Cc1cccc(O)c1 [Compound 5, Dihydrosansanmycin B]
MIC50 (Mtb H37Rv; [1]): 0.3 ± 0.03 µM (≈ 0.254 µg/mL)
MIC50 Mtb H37Rv (Mtb H37Rv; [2]): 0.30 ± 0.07 µM (≈ 0.254 µg/mL)
inhibition at 0.2 µM (Mtb MurX): > 51%
CC50 (HEK293 cells): > 200 µM

CC(C)C[C@H](NC(=O)N[C@@H](Cc1c[nH]c2ccccc12)C(=O)O)C(=O)N[C@H](C(=O)NC[C@H]1C[C@@H](O)[C@H](n2ccc(=O)[nH]c2=O)O1)[C@H](C)N(C)C(=O)[C@@H](N)CCCN [Compound 16]
MIC50 (Mtb H37Rv; [1]): 0.95 ± 0.07 µM (≈ 0.759 µg/mL)
MIC50 Mtb H37Rv (Mtb H37Rv; [2]): 0.95 to 1.35 µM
inhibition at 0.2 µM (Mtb MurX): 5%
CC50 (HEK293 cells): > 200 µM

C[C@@H]([C@H](NC(=O)[C@H](CCc1ccccc1)NC(=O)N[C@@H](Cc1c[nH]c2ccccc12)C(=O)O)C(=O)NC[C@H]1C[C@@H](O)[C@H](n2ccc(=O)[nH]c2=O)O1)N(C)C(=O)CN [Compound 35]
MIC50 (Mtb H37Rv; [1]): 1.08 ± 0.1 µM (≈ 0.853 µg/mL)
CC50 (HEK293 cells): > 200 µM

C[C@@H]([C@H](NC(=O)[C@@H](NC(=O)N[C@@H](Cc1c[nH]c2ccccc12)C(=O)O)c1ccccc1)C(=O)NC[C@H]1C[C@@H](O)[C@H](n2ccc(=O)[nH]c2=O)O1)N(C)C(=O)CN [Compound 34]
MIC50 (Mtb H37Rv; [1]): > 6.25 µM
inhibition at 0.2 µM (Mtb MurX): 51%
CC50 (HEK293 cells): > 200 µM

C[C@@H]([C@H](NC(=O)[C@H](Cc1cccnc1)NC(=O)N[C@@H](Cc1c[nH]c2ccccc12)C(=O)O)C(=O)NC[C@H]1C[C@@H](O)[C@H](n2ccc(=O)[nH]c2=O)O1)N(C)C(=O)CN [Compound 32]
inhibition at 0.2 µM (Mtb MurX): 52%
CC50 (HEK293 cells): > 200 µM

CCCCC[C@H](NC(=O)N[C@@H](Cc1c[nH]c2ccccc12)C(=O)O)C(=O)N[C@H](C(=O)NC[C@H]1C[C@@H](O)[C@H](n2ccc(=O)[nH]c2=O)O1)[C@H](C)N(C)C(=O)CN [Compound 23]
MIC50 (Mtb H37Rv; [1]): 0.51 ± 0.12 µM (≈ 0.385 µg/mL)
inhibition at 0.2 µM (Mtb MurX): 59%
CC50 (HEK293 cells): > 200 µM

C[C@@H]([C@H](NC(=O)[C@H](CC(=O)O)NC(=O)N[C@@H](Cc1c[nH]c2ccccc12)C(=O)O)C(=O)NC[C@H]1C[C@@H](O)[C@H](n2ccc(=O)[nH]c2=O)O1)N(C)C(=O)CN [Compound 27]
MIC50 (Mtb H37Rv; [3]): > 6.25 µM
inhibition at 0.2 µM (Mtb MurX): 34%
CC50 (HEK293 cells): > 200 µM

CC(C)C[C@H](NC(=O)N[C@@H](Cc1c[nH]c2ccccc12)C(=O)O)C(=O)N[C@H](C(=O)NC[C@H]1C[C@@H](O)[C@H](n2ccc(=O)[nH]c2=O)O1)[C@H](C)N(C)C(=O)[C@@H](N)CCCCN [Compound 15]
MIC50 (Mtb H37Rv; [1]): 1.35 ± 0.07 µM (≈ 1.1 µg/mL)
MIC50 Mtb H37Rv (Mtb H37Rv; [2]): 0.95 to 1.35 µM
inhibition at 0.2 µM (Mtb MurX): 7%
CC50 (HEK293 cells): > 200 µM

CC(C)C[C@H](NC(=O)N[C@@H](Cc1c[nH]c2ccccc12)C(=O)O)C(=O)N[C@H](C(=O)NC[C@H]1C[C@@H](O)[C@H](n2ccc(=O)[nH]c2=O)O1)[C@H](C)N(C)C(=O)[C@@H](N)[C@@H](C)O [Compound 17]
MIC50 (Mtb H37Rv; [1]): 1.35 ± 0.07 µM (≈ 1.06 µg/mL)
MIC50 Mtb H37Rv (Mtb H37Rv; [2]): 0.95 to 1.35 µM
inhibition at 0.2 µM (Mtb MurX): 20%
CC50 (HEK293 cells): > 200 µM

CC[C@@H](C)[C@H](NC(=O)N[C@@H](Cc1c[nH]c2ccccc12)C(=O)O)C(=O)N[C@H](C(=O)NC[C@H]1C[C@@H](O)[C@H](n2ccc(=O)[nH]c2=O)O1)[C@H](C)N(C)C(=O)CN [Compound 21]
MIC50 (Mtb H37Rv; [1]): 0.93 ± 0.11 µM (≈ 0.69 µg/mL)
inhibition at 0.2 µM (Mtb MurX): 46%
CC50 (HEK293 cells): > 200 µM

CC(C)C[C@H](NC(=O)N[C@@H](Cc1c[nH]c2ccccc12)C(=O)O)C(=O)N[C@H](C(=O)NC[C@H]1C[C@@H](O)[C@H](n2ccc(=O)[nH]c2=O)O1)[C@H](C)N(C)C(=O)[C@@H](N)CC(=O)O [Compound 14]
MIC50 (Mtb H37Rv; [3]): 9.8 ± 1.1 µM (≈ 7.84 µg/mL)
inhibition at 0.2 µM (Mtb MurX): 8%
CC50 (HEK293 cells): > 200 µM

CC(C)C[C@H](NC(=O)N[C@@H](Cc1c[nH]c2ccccc12)C(=O)O)C(=O)N[C@H](C(=O)NC[C@H]1C[C@@H](O)[C@H](n2ccc(=O)[nH]c2=O)O1)[C@H](C)N(C)C(=O)[C@@H](N)Cc1ccccc1 [Compound 7]
MIC50 (Mtb H37Rv; [1]): 4.05 ± 0.63 µM (≈ 3.37 µg/mL)
inhibition at 0.2 µM (Mtb MurX): 27%
CC50 (HEK293 cells): > 200 µM

CC(C)C[C@H](NC(=O)N[C@@H](Cc1c[nH]c2ccccc12)C(=O)O)C(=O)N[C@H](C(=O)NC[C@H]1C[C@@H](O)[C@H](n2ccc(=O)[nH]c2=O)O1)[C@H](C)N(C)C(=O)[C@@H](N)C1CCCCC1 [Compound 11]
MIC50 (Mtb H37Rv; [1]): 1.1 ± 0.84 µM (≈ 0.906 µg/mL)
MIC50 Mtb H37Rv (Mtb H37Rv; [2]): 0.95 to 1.35 µM
inhibition at 0.2 µM (Mtb MurX): 14%
CC50 (HEK293 cells): > 200 µM

CC(C)C[C@H](NC(=O)N[C@@H](Cc1c[nH]c2ccccc12)C(=O)O)C(=O)N[C@H](C(=O)NC[C@H]1C[C@@H](O)[C@H](n2ccc(=O)[nH]c2=O)O1)[C@H](C)N(C)C(=O)[C@@H](N)CC1CCCCC1 [Compound 10]
MIC50 (Mtb H37Rv; [1]): 1 ± 0.3 µM (≈ 0.838 µg/mL)
MIC50 Mtb H37Rv (Mtb H37Rv; [2]): 0.95 to 1.35 µM
inhibition at 0.2 µM (Mtb MurX): 41%
CC50 (HEK293 cells): > 200 µM

C[C@@H]([C@H](NC(=O)[C@H](Cc1ccccc1)NC(=O)N[C@@H](Cc1c[nH]c2ccccc12)C(=O)O)C(=O)NC[C@H]1C[C@@H](O)[C@H](n2ccc(=O)[nH]c2=O)O1)N(C)C(=O)CN [Compound 29]
MIC50 (Mtb H37Rv; [1]): 0.26 ± 0.15 µM (≈ 0.202 µg/mL)
inhibition at 0.2 µM (Mtb MurX): 60%
CC50 (HEK293 cells): > 200 µM

CC(C)C[C@H](NC(=O)N[C@@H](Cc1c[nH]c2ccccc12)C(=O)O)C(=O)N[C@H](C(=O)NC[C@H]1C[C@@H](O)[C@H](n2ccc(=O)[nH]c2=O)O1)[C@H](C)N(C)C(=O)CN [Compound 12]
MIC50 (Mtb H37Rv; [1]): 0.63 ± 0.17 µM (≈ 0.467 µg/mL)
MIC50 (Mtb H37Rv; [2]): 0.63 µM (≈ 0.467 µg/mL)
inhibition at 0.2 µM (Mtb MurX): 9%
CC50 (HEK293 cells): > 200 µM

CC(C)C[C@H](NC(=O)N[C@@H](Cc1c[nH]c2ccccc12)C(=O)O)C(=O)N[C@H](C(=O)NC[C@H]1C[C@@H](O)[C@H](n2ccc(=O)[nH]c2=O)O1)[C@H](C)N(C)C(=O)[C@H](C)N [Compound 13]
MIC50 (Mtb H37Rv; [1]): 0.6 ± 0.14 µM (≈ 0.453 µg/mL)
MIC50 (Mtb H37Rv; [2]): 0.60 µM (≈ 0.453 µg/mL)
inhibition at 0.2 µM (Mtb MurX): 50%
CC50 (HEK293 cells): > 200 µM

C[C@@H]([C@H](NC(=O)[C@@H](NC(=O)N[C@@H](Cc1c[nH]c2ccccc12)C(=O)O)C1CCCCC1)C(=O)NC[C@H]1C[C@@H](O)[C@H](n2ccc(=O)[nH]c2=O)O1)N(C)C(=O)CN [Compound 24]
MIC50 (Mtb H37Rv; [1]): 0.51 ± 0.1 µM (≈ 0.392 µg/mL)
inhibition at 0.2 µM (Mtb MurX): 41%
CC50 (HEK293 cells): > 200 µM

NNC(=O)c1ccncc1 [INH, isoniazid, reference compound]
MIC50 (Mtb H37Rv; [1]): 0.025 ± 0.005 µM (≈ 0.00343 µg/mL)
